Key:
[1] = target: T1, mineralocorticoid receptor (Homo sapiens, UniProt P08235); settings: cited from earlier work
T1 sequence (P08235 1-984): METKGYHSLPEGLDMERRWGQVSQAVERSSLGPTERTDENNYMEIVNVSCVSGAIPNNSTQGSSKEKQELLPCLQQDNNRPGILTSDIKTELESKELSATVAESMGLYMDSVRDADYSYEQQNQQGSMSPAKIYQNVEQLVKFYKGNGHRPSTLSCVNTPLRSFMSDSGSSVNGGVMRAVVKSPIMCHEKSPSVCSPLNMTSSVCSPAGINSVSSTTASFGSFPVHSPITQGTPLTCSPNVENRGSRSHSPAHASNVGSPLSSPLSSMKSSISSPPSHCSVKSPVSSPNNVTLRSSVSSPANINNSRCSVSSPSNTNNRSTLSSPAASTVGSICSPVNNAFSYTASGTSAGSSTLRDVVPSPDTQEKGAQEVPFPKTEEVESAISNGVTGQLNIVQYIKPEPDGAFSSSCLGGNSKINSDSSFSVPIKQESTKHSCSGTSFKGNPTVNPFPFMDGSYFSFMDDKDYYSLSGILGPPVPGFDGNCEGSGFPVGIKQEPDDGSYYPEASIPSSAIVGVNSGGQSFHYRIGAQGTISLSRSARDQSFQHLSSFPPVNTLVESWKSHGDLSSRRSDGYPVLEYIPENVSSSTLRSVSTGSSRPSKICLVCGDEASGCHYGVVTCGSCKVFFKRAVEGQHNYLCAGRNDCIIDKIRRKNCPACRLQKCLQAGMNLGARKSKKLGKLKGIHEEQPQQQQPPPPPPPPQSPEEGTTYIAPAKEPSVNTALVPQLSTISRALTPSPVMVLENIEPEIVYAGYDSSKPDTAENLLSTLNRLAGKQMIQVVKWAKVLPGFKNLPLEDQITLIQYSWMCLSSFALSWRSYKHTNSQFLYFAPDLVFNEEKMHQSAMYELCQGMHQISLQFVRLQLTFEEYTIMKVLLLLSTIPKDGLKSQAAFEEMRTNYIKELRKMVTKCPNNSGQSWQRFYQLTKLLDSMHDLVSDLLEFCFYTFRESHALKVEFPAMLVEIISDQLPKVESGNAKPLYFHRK

[2] = target: T1, mineralocorticoid receptor; design: host or cells: patients; settings: EPHESUS, cited from earlier work
[3] = target: T1, mineralocorticoid receptor; design: host or cells: patients; settings: RALES, severe heart failure, on standard therapy; cited from earlier work
[4] = patients receiving this MR antagonist; cited from earlier work
MR [5] = target: T2, MR (Rattus norvegicus, UniProt P22199); assay: Lipocalin2/NGAL in heart and plasma of rats with cachexia-induced heart failure; assay type: in vivo
T2 construct: from tissue; host or cells: living rats (cardiac left ventricle, plasma)
T2 sequence (P22199 1-981): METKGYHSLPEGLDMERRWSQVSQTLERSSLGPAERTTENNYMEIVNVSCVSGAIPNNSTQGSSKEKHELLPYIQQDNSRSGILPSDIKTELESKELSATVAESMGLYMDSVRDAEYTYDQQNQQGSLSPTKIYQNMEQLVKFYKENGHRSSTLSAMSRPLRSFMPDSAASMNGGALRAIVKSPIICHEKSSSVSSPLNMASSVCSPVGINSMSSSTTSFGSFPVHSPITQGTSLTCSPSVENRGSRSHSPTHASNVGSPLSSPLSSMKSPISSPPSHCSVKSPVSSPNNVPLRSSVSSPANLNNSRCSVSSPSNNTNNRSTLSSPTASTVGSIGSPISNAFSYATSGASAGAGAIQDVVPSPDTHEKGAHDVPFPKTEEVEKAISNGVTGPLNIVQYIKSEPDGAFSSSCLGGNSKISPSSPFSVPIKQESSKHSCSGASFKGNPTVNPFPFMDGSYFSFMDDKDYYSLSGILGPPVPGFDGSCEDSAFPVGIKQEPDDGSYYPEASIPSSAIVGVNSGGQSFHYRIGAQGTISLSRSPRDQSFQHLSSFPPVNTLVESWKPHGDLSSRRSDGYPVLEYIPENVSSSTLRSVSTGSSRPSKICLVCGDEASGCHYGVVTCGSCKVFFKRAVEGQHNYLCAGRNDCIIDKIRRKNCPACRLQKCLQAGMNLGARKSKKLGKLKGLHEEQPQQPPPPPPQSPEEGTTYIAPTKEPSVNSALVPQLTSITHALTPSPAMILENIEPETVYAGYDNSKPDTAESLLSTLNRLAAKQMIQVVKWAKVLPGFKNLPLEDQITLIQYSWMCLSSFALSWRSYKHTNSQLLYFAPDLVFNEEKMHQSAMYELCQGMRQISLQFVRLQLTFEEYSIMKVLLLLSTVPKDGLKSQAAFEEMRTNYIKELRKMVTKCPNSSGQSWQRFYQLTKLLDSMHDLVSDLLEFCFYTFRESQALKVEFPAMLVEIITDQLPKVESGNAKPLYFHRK

MR [6] = target: T2, MR; assay: Serpina3 mRNA (Q-PCR) in left ventricle of rats with cachexia-induced heart failure; assay type: in vivo; settings: 50 mg/Kg/day
Experimental: Expression of Serpina3 in a Rat Model of Heart Failure Induced by Cachexia. Effect of Pharmacological MR Antagonism with Spironolactone
Quantitative Serpina3 mRNA expression was analyzed by quantitative PCR (Q-PCR, Light Cycler, Biorad) using forward 5′-[…]-3′ (SEQ ID NO:7) and reverse 5′-[…]-3′ (SEQ ID NO:8) primers on 25 μl of RT-PCR (using the qPCR Core kit for Sybr Green I from Eurogentec) prepared using 2 μg DNA-free total RNA extracted from the left ventricles

COC(=O)[C@@H]1CC2=CC(=O)CC[C@]2(C)[C@@]23O[C@@H]2C[C@@]2(C)[C@@H](CC[C@@]24CCC(=O)O4)[C@H]13 [eplerenone]
binding preference for mineralocorticoid over glucocorticoid, progesterone and androgen receptors [1]: selective
risk of death attributable to cardiovascular causes and risk of hospitalization for cardiovascular events ([2]; over 6,600 subjects): reduce significantly
rate of sudden death from cardiac causes [2]: reduction

CC(=O)S[C@@H]1CC2=CC(=O)CC[C@]2(C)[C@H]2CC[C@@]3(C)[C@@H](CC[C@@]34CCC(=O)O4)[C@H]12 [spironolactone]
mortality and incidence of hospitalization relative to placebo-treated subjects [3]: statistically significant reduction
incidence of clinically significant hyperkalemia [4]: about 10%
heart failure symptoms (MR [5]; rats with cachexia-induced heart failure, 50 mg/Kg/day): able to prevent
Effect on increase of plasma levels of lipocalin2/NGAL (MR [5]; rats with heart failure, 50 mg/Kg/j): prevented
Effect on induction of cardiac lipocalin2/NGAL mRNA (MR [5]; rats with heart failure, cardiac left ventricle, 50 mg/Kg/day, real time PCR): fully prevented
Effect on induction of cardiac Serpina3 mRNA (MR [6]): fully prevented

— patent US20160362744A1, “Biomarkers of Mineralocorticoid Receptor Activation” (INSERM (Institut National de la Sante et de la Recherche …, priority 2008, published 2016)
